Where two headings read alike, the source gives them in different places. Numbered stars: 1 amine (or outer) side, 2 acyl side, 3 side chain; on linkers, the order of the positions; unused ones are H or OH. Square brackets hold non-standard residues; d marks the D form. Peptide text beside a SMILES is read from it. X1 = O=C([C@H]1[C@@H](c2ccccc2)CCN1[*:1])[*:2]; X2 = O=C([C@@H]1[C@H](c2ccccc2)CCN1[*:1])[*:2]; dAla(4-thiazolyl) = N[C@H](Cc1cscn1)C(=O)O; Tic(7-OH) = O=C(O)[C@@H]1Cc2ccc(O)cc2CN1; Phe(4-NH2) = Nc1ccc(C[C@H](N)C(=O)O)cc1; Phe(4-F) = N[C@@H](Cc1ccc(F)cc1)C(=O)O; hCha = N[C@@H](CCC1CCCCC1)C(=O)O
Legend:
[1] = tested on: in vitro bovine BBB cell-based model; test: In vitro bovine BBB cell-based model transport assay; settings: for Transport (%) MALDI-TOF MS / Transport (%) RP-HPLC-PDA: 200 μM peptide in Ringer-HEPES, 2 h, 37 °C, mean ± SD, n = 3; for Transport (%) MALDI-TOF MS: quantified by MALDI-TOF MS with heavy internal standard; for Transport (%) RP-HPLC-PDA: quantified by RP-HPLC-PDA (220 nm), some values approximate (below LOQ); for Increase in transport compared to the parent peptide (1 L): bovine BBB model, MALDI-TOF MS quantification, transport normalized by parent peptide 1 L
Procedure: (§1) Peptides were evaluated through an in vitro bovine BBB cell-based model (Fig. 2a). Transport (T) and permeability (Papp) for all peptides were quantified by RP-HPLC-PDA and by MALDI-TOF MS (Fig. 2). The former method determined transport by applying the ratio between the peak areas integrated in the chromatograms from the acceptor and donor wells, further corrected by the volumes injected and the volumes contained in each well (see Eq. 1). The latter entails the spiking of the heavy version of the peptide as internal standard into an aliquot of the light peptide (Fig. 2b). The MS intensity for light/heavy ratios for acceptor and donor wells is representative of the relative amount of peptide in each well when corrected by their volume (detailed in Eq. 2).1 T=QAI(t)/QDI(t0)×VDI/VAI×VAW/VDW×100(%) where QAI(t) and QDI(t0) account for the integrated area in the HPLC chromatograms of acceptor (at time t = 2 h) and donor (at time t0 = 0) wells, respectively; VDI and VAI are the injected volumes from donor and acceptor wells, respectively; and VAW and VDW are the volumes in each acceptor and donor well, respectively.2 T=QALight(t)/Q^Heavy/QDLight(t0)/(R×Q^Heavy)×VAW/VDW×100(%) QALight(t)/Q^Heavy accounts for the relative amount of the light peptide in the acceptor well (at time t) compared with a prepared dilution of the heavy isomer (at 2 μM). QDLight(t0)/(R×Q^Heavy) determines the relative amount of light peptide in the donor well (at time t = 0) compared with a prepared dilution of the heavy isomer (at 200 μM; i.e. in our case R = 100).
(§2) In general, transport (see Eq. 3) can be described by the total amount of peptide in the acceptor well at time t, QA(t) , divided by the initial amount in the donor well, QD(t0) , while apparent permeability (Papp), widely used in the literature, normalizes transport by the transwell area, volume in donor well and time (see Eq. 4). […] In these cases, an approximate value was determined.
(§3) This assay was an adapted model[5] of the method previously published by Gaillard and de Boer[49]. Before performing the assay, TEER was measured in all transwells (TEER > 100 Ω·cm^2). […] The apical compartment was filled with 200 μL of the solution containing the peptide, and 800 µL of Ringer-HEPES was poured into the basal well. Three replicates of each peptide were assayed. The plate was left for 2 h in the incubator at 37 °C. Finally, the samples were collected and analyzed or frozen until analysis. LY fluorescence was measured in a 96-well plate with a Fluoroskan Ascent Microplate Fluorometer (Thermo Fisher Scientific). Two parameters were determined, namely transport (T (%)) and apparent permeability (Papp(cm/s)). RP-HPLC-PDA (220 nm) and MALDI-TOF MS were used to determine the amounts of peptide in each sample.
(§4) Transport was calculated using Eq. 2. […] Peak-picking and determination of peak area ratios was performed using Data Explorer version 4.5 (Applied Biosystems).

[2] = as above; settings: bovine, 200 μM peptide in Ringer-HEPES, 2 h, 37 °C, mean ± SD, n = 3
Procedure: as §1, §2, §3, §4

[3] = Peptide stability in human serum; format: in vitro ADME; settings: for Protease resistance (in human serum): result in words
Procedure: Peptides were dissolved in 1 mL of HBSS buffer/human serum (from human male AB plasma; Sigma-Aldrich) 10:90 (v/v) at a final concentration of 200 µM and incubated at 37 °C for 24 h. Aliquots of 50 µL were extracted at a range of incubation times and treated with 200 µL of cold CH3OH (4 °C) to precipitate serum proteins. After 30 min, samples were centrifuged at 13,000 g and 4 °C for 30 min. Supernatants were analyzed by RP-HPLC-PDA and MALDI-TOF MS, using similar procedures as for the quantification of the in vitro cell-based BBB model.

[4] = Parallel artificial membrane permeability assay (PAMPA); format: in vitro ADME; settings: pig, porcine brain polar lipid extract
Procedure: Passive diffusion was ruled out as the mechanism responsible for transport when the peptides (1 L, 6D, 7 − D and 8D) were assayed by PAMPA, an in vitro physico-chemical model where the transport by passive diffusion of compounds is evaluated through a membrane containing the lipid composition of interest (in our case, a porcine brain polar lipid extract (BPLE) to mimic the BBB lipid barrier). […] Note that when these values fall below 2.0 × 10^−6 cm/s compounds are considered to be poorly transported by passive diffusion.
The PAMPA assay was used to exclude passive diffusion capacity across the BBB. The standard parameter that quantifies transport independently of time and concentrations is effective permeability, Pe=−218.3/tLog(1−2CA(t)/CD(t0))×10^−6cm/s; where t is the running time (4 h), CA (t) is the concentration of the compound in the acceptor well at time t, and CD (t0) is the compound concentration in the donor well before running the PAMPA assay (t0 = 0 h). […] The protocol followed was the same as that previously used by Arranz-Gibert et al.[1]. Permeability is considered excellent with values >4.0 × 10^−6) cm/s, uncertain between 2.0 × 10^−6 and 4.0 × 10^−6 cm/s, and poor with values below 2.0 × 10^−6) cm/s[41].

[5] = tested on: in vitro human model of the BBB (brain-like endothelial cells from human cord blood-derived hematopoietic stem cells co-cultured with bovine pericytes); test: In vitro human BBB cell-based model transport assay
Procedure: The aforementioned peptides were assayed as in the other BBB model using either Ringer-HEPES buffer (the one commonly used in these assays) or supplemented ECM medium. The use of medium in this assay allows (1) the extension of the incubation time and (2) the use of more similar conditions to those found physiologically.
Endothelial cells and pericytes were defrosted in gelatin-coated Petri dishes (Corning). Pericytes and endothelial cells were cultured in DMEM pH 6.8 or in supplemented endothelial cell growth medium (Sciencells), respectively. After 48 h, pericytes (50,000 cells/well) and endothelial cells (80,000 cells/well) were seeded in gelatin-coated 12-well plates or in Matrigel-coated 12-well Transwell inserts (Corning), respectively. Medium was changed every 2–3 days and assays were performed 7–8 days after seeding. […] LY fluorescence was measured in a 96-well plate with a Fluoroskan Ascent Microplate Fluorometer (Thermo Fisher Scientific). Compounds were dissolved in Ringer-HEPES at a concentration of 200 µM. Then, 500 µL of the compound and 1,500 µL of Ringer-HEPES alone were introduced in the apical or in the basolateral compartments, respectively. The plates were set on at 37 °C for 2 h. The solutions from both compartments were then recovered and quantified by HPLC and identified by MALDI-TOF.

[6] = Papp MALDI-TOF MS, quantified by MALDI-TOF MS with heavy internal standard
[7] = Papp RP-HPLC-PDA, quantified by RP-HPLC-PDA (220 nm)
[8] = 4 h, n = 3, values are Pe · 10^6, read-out: Pe · 10^6 (effective permeability)
[9] = read-out: Permeability values (PAMPA), bound in the text

| Transport (%) MALDI-TOF MS [1] [%] | Transport (%) RP-HPLC-PDA [1] [%] | Papp at 2 h, 200 μM [2, 6] [×10⁻⁶ cm/s] | Papp at 2 h, 200 μM [2, 7] [×10⁻⁶ cm/s] | Compound | Increase in transport compared to the parent peptide (1 L) [1] | half-life at 200 µM ([3]; male, HBSS buffer/human serum 10:90 (v/v), 200 µM, 37 °C, 24 h, non-linear regression, read-out: t1/2 in human serum (converted)) [h] | Papp at 4 h [4, 8] [×10⁻⁶ cm/s] | Papp at 4 h [4, 9] [×10⁻⁶ cm/s] | Protease resistance (in human serum) [3] | Transport relative to the parent peptide 1 L (HAI), buffer ([5]; human BBB model, Ringer-HEPES buffer) | Transport relative to the parent peptide 1 L (HAI), medium ([5]; human BBB model, supplemented ECM medium) | Papp of Lucifer yellow (control) ([1]; 20 μM Lucifer yellow lithium salt as control in Ringer-HEPES) | Papp of Lucifer Yellow (internal control) ([5]; 50 µM Lucifer Yellow as internal control) |
| --- | --- | --- | --- | --- | --- | --- | --- | --- | --- | --- | --- | --- | --- |
| 7 ± 2 | 6.8 ± 1.2 | 5.7 ± 1.9 | 5.7 ± 1 | CC[C@@H](C)[C@@H](NC(=O)[C@@H](Cc1ccc(O)cc1)NC(=O)[C@@H]1[C@H](c2ccccc2)CCN1C(=O)[C@@H](CCCNC(=N)N)NC(=O)[C@@H](Cc1c[nH]cn1)NC(C)=O)C(=O)N[C@H](C)C(=O)N[C@H](Cc1c[nH]cn1)C(N)=O [7+D, Ac-hrxyiah-NH2] (Ac-[dH][dR][X2][dY][dI][dA][dH]-NH2) | two-fold | – | – | – | – | – | – | – | – |
| 3.4 ± 0.7 | 3.9 ± 0.9 | 2.8 ± 0.6 | 3.3 ± 0.7 | CC(=O)N[C@@H](Cc1c[nH]cn1)C(=O)N[C@@H](C)C(=O)N[C@@H](CCC1CCCCC1)C(=O)N[C@@H](Cc1ccc(O)cc1)C(=O)N1CCC[C@H]1C(=O)N[C@@H](CCCNC(=N)N)C(=O)N[C@@H](Cc1c[nH]cn1)C(N)=O [Peptide 2L, Ac-HAxYPRH-NH2] (Ac-HA[hCha]YPRH-NH2) | – | – | – | – | – | – | – | – | – |
| 2.5 ± 1.2 | 2.0 ± 0.8 | 2.1 ± 1 | 1.7 ± 0.6 | CC[C@H](C)[C@H](NC(=O)[C@H](C)NC(=O)[C@H](Cc1c[nH]cn1)NC(C)=O)C(=O)N1Cc2cc(O)ccc2C[C@H]1C(=O)N1CCC[C@H]1C(=O)N[C@@H](CCCNC(=N)N)C(=O)N[C@@H](Cc1c[nH]cn1)C(N)=O [Peptide 3L, Ac-HAIxPRH-NH2] (Ac-HAI[Tic(7-OH)]PRH-NH2) | – | – | – | – | – | – | – | – | – |
| 2.1 ± 0.5 | 2.0 ± 0.9 | 1.8 ± 0.4 | 1.6 ± 0.8 | CC[C@H](C)[C@H](NC(=O)[C@H](C)NC(=O)[C@H](Cc1c[nH]cn1)NC(C)=O)C(=O)N[C@@H](Cc1ccc(N)cc1)C(=O)N1CCC[C@H]1C(=O)N[C@@H](CCCNC(=N)N)C(=O)N[C@@H](Cc1c[nH]cn1)C(N)=O [Peptide 4L, Ac-HAIxPRH-NH2] (Ac-HAI[Phe(4-NH2)]PRH-NH2) | – | – | – | – | – | – | – | – | – |
| 3.1 ± 1.6 | 3.4 ± 1.6 | 2.6 ± 1.3 | 2.9 ± 1.3 | CC[C@H](C)[C@H](NC(=O)[C@H](C)NC(=O)[C@H](Cc1c[nH]cn1)NC(C)=O)C(=O)N[C@@H](Cc1ccc(F)cc1)C(=O)N1CCC[C@H]1C(=O)N[C@@H](CCCNC(=N)N)C(=O)N[C@@H](Cc1c[nH]cn1)C(N)=O [Peptide 5L, Ac-HAIxPRH-NH2] (Ac-HAI[Phe(4-F)]PRH-NH2) | – | – | – | – | – | – | – | – | – |
| 2.9 ± 1.2 | 4.4 ± 0.5 | 2.4 ± 1 | 3.7 ± 0.4 | CC[C@@H](C)[C@@H](NC(=O)[C@@H](Cc1ccc(O)cc1)NC(=O)[C@H]1CCCN1C(=O)[C@@H](CCCNC(=N)N)NC(=O)[C@@H](Cc1cscn1)NC(C)=O)C(=O)N[C@H](C)C(=O)N[C@H](Cc1c[nH]cn1)C(N)=O [Peptide 9D, Ac-xrpyiah-NH2] (Ac-[dAla(4-thiazolyl)][dR][dP][dY][dI][dA][dH]-NH2) | – | – | – | – | – | – | – | – | – |
| – | – | – | – | Lucifer yellow (LY) lithium salt [reference compound] | – | – | – | – | – | – | – | < 17 ·10^−6 cm/s | < 15 ·10^−6 cm/s |

| Compound | Transport (%) MALDI-TOF MS [1] [%] | Transport (%) RP-HPLC-PDA [1] [%] | Papp at 2 h, 200 μM [2, 6] [×10⁻⁶ cm/s] | Papp at 2 h, 200 μM [2, 7] [×10⁻⁶ cm/s] | Increase in transport compared to the parent peptide (1 L) [1] | half-life at 200 µM ([3]; male, HBSS buffer/human serum 10:90 (v/v), 200 µM, 37 °C, 24 h, non-linear regression, read-out: t1/2 in human serum (converted)) [h] | Papp at 4 h [4, 8] [×10⁻⁶ cm/s] | Papp at 4 h [4, 9] [×10⁻⁶ cm/s] | Protease resistance (in human serum) [3] | Transport relative to the parent peptide 1 L (HAI), buffer ([5]; human BBB model, Ringer-HEPES buffer) | Transport relative to the parent peptide 1 L (HAI), medium ([5]; human BBB model, supplemented ECM medium) | Papp of Lucifer yellow (control) ([1]; 20 μM Lucifer yellow lithium salt as control in Ringer-HEPES) | Papp of Lucifer Yellow (internal control) ([5]; 50 µM Lucifer Yellow as internal control) |
| --- | --- | --- | --- | --- | --- | --- | --- | --- | --- | --- | --- | --- | --- |
| CC[C@H](C)[C@H](NC(=O)[C@H](C)NC(=O)[C@H](Cc1c[nH]cn1)NC(C)=O)C(=O)N[C@@H](Cc1ccc(O)cc1)C(=O)N1CCC[C@H]1C(=O)N[C@@H](CCCNC(=N)N)C(=O)N[C@@H](Cc1c[nH]cn1)C(N)=O [Peptide 1L, Ac-HAIYPRH-NH2] | 3.8 ± 1.4 | 2.9 ± 1.4 | 3.2 ± 1.2 | 2.5 ± 1.1 | – | 3.3 | 0.18 | < 0.4 | – | – | – | – | – |
| CC[C@@H](C)[C@@H](NC(=O)[C@@H](Cc1ccc(O)cc1)NC(=O)[C@H]1CCCN1C(=O)[C@@H](CCCNC(=N)N)NC(=O)[C@@H](Cc1c[nH]cn1)NC(C)=O)C(=O)N[C@H](C)C(=O)N[C@H](Cc1c[nH]cn1)C(N)=O [Peptide 6D, Ac-hrpyiah-NH2] | 3.1 ± 0.9 | 5.3 ± 1.8 | 2.6 ± 0.7 | 4.5 ± 1.5 | – | – | 0.34 | < 0.4 | – | – | – | – | – |
| CC[C@@H](C)[C@@H](NC(=O)[C@@H](Cc1ccc(O)cc1)NC(=O)[C@H]1[C@@H](c2ccccc2)CCN1C(=O)[C@@H](CCCNC(=N)N)NC(=O)[C@@H](Cc1c[nH]cn1)NC(C)=O)C(=O)N[C@H](C)C(=O)N[C@H](Cc1c[nH]cn1)C(N)=O [Peptide 7-D, Ac-hrxyiah-NH2] (Ac-[dH][dR][X1][dY][dI][dA][dH]-NH2) | 7 ± 3 | 5.7 ± 1.8 | 6 ± 2 | 4.8 ± 1.5 | two-fold | – | 0.33 | < 0.4 | high resistance to protease degradation | around 1.5 fold | eight- | – | – |
| CC[C@@H](C)[C@@H](NC(=O)[C@@H](Cc1ccc(O)cc1)NC(=O)[C@H]1CCCCN1C(=O)[C@@H](CCCNC(=N)N)NC(=O)[C@@H](Cc1c[nH]cn1)NC(C)=O)C(=O)N[C@H](C)C(=O)N[C@H](Cc1c[nH]cn1)C(N)=O [Peptide 8D, Ac-hrxyiah-NH2] | 7.5 ± 1.0 | 7.2 ± 0.9 | 6.3 ± 0.8 | 6.1 ± 0.8 | two-fold | – | 0.34 | < 0.4 | high resistance to protease degradation | – | – | – | – |

Reference: article PMC6424956, “A MALDI-TOF-based Method for Studying the Transport of BBB Shuttles—Enhancing Sensitivity and Versatility of Cell-Based In Vitro Transport Models” (Scientific Reports, 2019)
